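Following 48 hours of exposure in 96-well plates, responses at five concentrations were used to interpolate endpoints linearly. TGI: concentration producing complete growth inhibition.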
Assays:
Assay in all cases: growth of human tumour cells (NCI), 48 h
DMS 114 small cell lung = tested on: DMS 114 small cell lung
SW-620 colon = tested on: SW-620 colon
DLD-1 colon = tested on: DLD-1 colon
LOX IMVI melanoma = tested on: LOX IMVI melanoma
SF-539 CNS = tested on: SF-539 CNS
MALME-3M melanoma = tested on: MALME-3M melanoma
HCT-116 colon = tested on: HCT-116 colon
KM12 colon = tested on: KM12 colon
TK-10 renal = tested on: TK-10 renal
HOP-62 NSCLC = tested on: HOP-62 NSCLC
RPMI-8226 leukemia = tested on: RPMI-8226 leukemia
SNB-19 CNS = tested on: SNB-19 CNS
KM20L2 colon = tested on: KM20L2 colon
UACC-257 melanoma = tested on: UACC-257 melanoma
OVCAR-4 ovarian = tested on: OVCAR-4 ovarian
LXFL 529 NSCLC = tested on: LXFL 529 NSCLC
HL-60(TB) leukemia = tested on: HL-60(TB) leukemia
UACC-62 melanoma = tested on: UACC-62 melanoma
OVCAR-5 ovarian = tested on: OVCAR-5 ovarian
SF-268 CNS = tested on: SF-268 CNS
SNB-75 CNS = tested on: SNB-75 CNS
CAKI-1 renal = tested on: CAKI-1 renal
U251 CNS = tested on: U251 CNS
M19-MEL melanoma = tested on: M19-MEL melanoma
MOLT-4 leukemia = tested on: MOLT-4 leukemia
IGROV1 ovarian = tested on: IGROV1 ovarian
OVCAR-3 ovarian = tested on: OVCAR-3 ovarian
SK-OV-3 ovarian = tested on: SK-OV-3 ovarian
DMS 273 small cell lung = tested on: DMS 273 small cell lung
786-0 renal = tested on: 786-0 renal
RXF 393 renal = tested on: RXF 393 renal
HOP-92 NSCLC = tested on: HOP-92 NSCLC
ACHN renal = tested on: ACHN renal
NCI-H522 lung = tested on: NCI-H522 lung
SN12C renal = tested on: SN12C renal
OVCAR-8 ovarian = tested on: OVCAR-8 ovarian
UO-31 renal = tested on: UO-31 renal
SF-295 CNS = tested on: SF-295 CNS
A549 NSCLC = tested on: A549 NSCLC
NCI-H460 lung = tested on: NCI-H460 lung
SK-MEL-28 melanoma = tested on: SK-MEL-28 melanoma
XF 498 CNS = tested on: XF 498 CNS
SR leukemia = tested on: SR leukemia
M14 melanoma = tested on: M14 melanoma
HCC-2998 colon = tested on: HCC-2998 colon
CCRF-CEM leukemia = tested on: CCRF-CEM leukemia
NCI-H226 lung = tested on: NCI-H226 lung
NCI-H23 lung = tested on: NCI-H23 lung
COLO 205 colon = tested on: COLO 205 colon
SK-MEL-5 melanoma = tested on: SK-MEL-5 melanoma
K-562 leukemia = tested on: K-562 leukemia
SNB-78 CNS = tested on: SNB-78 CNS
HT29 colon = tested on: HT29 colon
HCT-15 colon = tested on: HCT-15 colon
SK-MEL-2 melanoma = tested on: SK-MEL-2 melanoma
EKVX NSCLC = tested on: EKVX NSCLC
RXF-631 renal = tested on: RXF-631 renal
A498 renal = tested on: A498 renal
HOP-18 NSCLC = tested on: HOP-18 NSCLC

Measured: TGI

CN(O)C(=O)Cc1ccccc1
> 100 µM: DMS 114 small cell lung | SW-620 colon | DLD-1 colon | LOX IMVI melanoma | SF-539 CNS | MALME-3M melanoma | HCT-116 colon | KM12 colon | TK-10 renal | HOP-62 NSCLC | RPMI-8226 leukemia | SNB-19 CNS | KM20L2 colon | UACC-257 melanoma | OVCAR-4 ovarian | LXFL 529 NSCLC | HL-60(TB) leukemia | UACC-62 melanoma | OVCAR-5 ovarian | SF-268 CNS | SNB-75 CNS | CAKI-1 renal | U251 CNS | M19-MEL melanoma | MOLT-4 leukemia | IGROV1 ovarian | OVCAR-3 ovarian | SK-OV-3 ovarian | DMS 273 small cell lung | 786-0 renal | RXF 393 renal | HOP-92 NSCLC | ACHN renal | NCI-H522 lung | SN12C renal | OVCAR-8 ovarian | UO-31 renal | SF-295 CNS | A549 NSCLC | NCI-H460 lung | SK-MEL-28 melanoma | XF 498 CNS | SR leukemia | M14 melanoma | HCC-2998 colon | CCRF-CEM leukemia | NCI-H226 lung | NCI-H23 lung | COLO 205 colon | SK-MEL-5 melanoma | K-562 leukemia | SNB-78 CNS | HT29 colon

CNC(=O)CN1CC(=O)N(C)C(=O)C1
> 100 µM: SW-620 colon | DLD-1 colon | LOX IMVI melanoma | MALME-3M melanoma | KM12 colon | TK-10 renal | HOP-62 NSCLC | RPMI-8226 leukemia | SNB-19 CNS | KM20L2 colon | OVCAR-4 ovarian | HCT-15 colon | LXFL 529 NSCLC | HL-60(TB) leukemia | UACC-62 melanoma | OVCAR-5 ovarian | SNB-75 CNS | CAKI-1 renal | U251 CNS | SK-MEL-2 melanoma | M19-MEL melanoma | MOLT-4 leukemia | IGROV1 ovarian | OVCAR-3 ovarian | SK-OV-3 ovarian | DMS 273 small cell lung | RXF 393 renal | HOP-92 NSCLC | NCI-H522 lung | UO-31 renal | SK-MEL-28 melanoma | XF 498 CNS | SR leukemia | M14 melanoma | HCC-2998 colon | CCRF-CEM leukemia | NCI-H226 lung | NCI-H23 lung | COLO 205 colon | SK-MEL-5 melanoma | K-562 leukemia | SNB-78 CNS

Cc1nc(C(N)=S)sc1C(=O)/C=C/c1cccc(O)c1
78.3 µM: K-562 leukemia
> 100 µM: DMS 114 small cell lung | SW-620 colon | DLD-1 colon | LOX IMVI melanoma | SF-539 CNS | MALME-3M melanoma | EKVX NSCLC | KM12 colon | TK-10 renal | HOP-62 NSCLC | RPMI-8226 leukemia | KM20L2 colon | UACC-257 melanoma | HCT-15 colon | HL-60(TB) leukemia | UACC-62 melanoma | OVCAR-5 ovarian | SF-268 CNS | SNB-75 CNS | CAKI-1 renal | U251 CNS | SK-MEL-2 melanoma | RXF-631 renal | M19-MEL melanoma | MOLT-4 leukemia | IGROV1 ovarian | OVCAR-3 ovarian | SK-OV-3 ovarian | DMS 273 small cell lung | 786-0 renal | RXF 393 renal | HOP-92 NSCLC | ACHN renal | NCI-H522 lung | SN12C renal | OVCAR-8 ovarian | UO-31 renal | A498 renal | SF-295 CNS | HOP-18 NSCLC | A549 NSCLC | NCI-H460 lung | SK-MEL-28 melanoma | HCC-2998 colon | NCI-H226 lung | NCI-H23 lung | COLO 205 colon | SK-MEL-5 melanoma | SNB-78 CNS | HT29 colon
89.2 µM: CCRF-CEM leukemia

CC(C)(C)OC(=O)N1N=NC2C3CC(=O)C(O3)C21 (stereo not drawn)
> 100 µM: SW-620 colon | DLD-1 colon | SF-539 CNS | MALME-3M melanoma | EKVX NSCLC | TK-10 renal | RPMI-8226 leukemia | KM20L2 colon | LXFL 529 NSCLC | CAKI-1 renal | RXF-631 renal | MOLT-4 leukemia | IGROV1 ovarian | OVCAR-3 ovarian | DMS 273 small cell lung | 786-0 renal | RXF 393 renal | HOP-92 NSCLC | ACHN renal | NCI-H522 lung | SN12C renal | OVCAR-8 ovarian | UO-31 renal | A498 renal | SF-295 CNS | HOP-18 NSCLC | A549 NSCLC | NCI-H460 lung | SR leukemia | M14 melanoma | CCRF-CEM leukemia | SK-MEL-5 melanoma | K-562 leukemia

C[Si](C)(C)/C=C/CN1C(=O)CCC1O (stereo not drawn)
> 100 µM: DMS 114 small cell lung | SW-620 colon | DLD-1 colon | LOX IMVI melanoma | SF-539 CNS | MALME-3M melanoma | EKVX NSCLC | HCT-116 colon | KM12 colon | TK-10 renal | HOP-62 NSCLC | RPMI-8226 leukemia | SNB-19 CNS | KM20L2 colon | UACC-257 melanoma | OVCAR-4 ovarian | HCT-15 colon | LXFL 529 NSCLC | HL-60(TB) leukemia | UACC-62 melanoma | OVCAR-5 ovarian | SF-268 CNS | SNB-75 CNS | CAKI-1 renal | U251 CNS | SK-MEL-2 melanoma | M19-MEL melanoma | MOLT-4 leukemia | IGROV1 ovarian | OVCAR-3 ovarian | SK-OV-3 ovarian | DMS 273 small cell lung | 786-0 renal | RXF 393 renal | HOP-92 NSCLC | ACHN renal | NCI-H522 lung | SN12C renal | OVCAR-8 ovarian | UO-31 renal | A498 renal | SF-295 CNS | HOP-18 NSCLC | A549 NSCLC | NCI-H460 lung | SK-MEL-28 melanoma | XF 498 CNS | SR leukemia | M14 melanoma | HCC-2998 colon | CCRF-CEM leukemia | NCI-H226 lung | NCI-H23 lung | COLO 205 colon | SK-MEL-5 melanoma | K-562 leukemia | SNB-78 CNS | HT29 colon
